Measured values taken from patent US20130344140A1, “NOVEL PHARMACEUTICAL COMBINATIONS AND METHODS FOR TREATING CANCER” (Agency for Science, Technology and Research, priority 2011, published 2013).

How the values were obtained:
[1] = system: MDA-MB 468 and HCT116 p53−/−; assay: Annexin V apoptosis assay, p53-compromised cell lines; assay type: cell-based; conditions: various concentrations of VX-680; MDA-MB 468 and HCT116 p53−/−
Protocol: Cells were then harvested and stained for annexin V to detect apoptotic cells.
For analysis of apoptosis, cells were harvested without fixation. Apoptosis was evaluated using the annexin V (fluorescein isothiocyanate (FITC))-propidium iodide binding assay (Roche, Indianapolis, Ind., USA). The extent of apoptosis was quantified as a percentage of annexin V-positive cells over the total cell population. Flow cytometric analysis was performed on a BD LSR II System (BD Biosciences, Stockholm, Sweden). Data were analyzed using FlowJo software and ModFit LT (Verity Software House, Topsham, Me., USA).

p53, p21, MDM2 and PUMA = assay: Accumulation of p53 and p53-dependent gene products in response to VX-680 (western blot, transcript levels); assay type: cell-based; conditions: cells treated with VX-680 (FIG. 8A)
Protocol: (A) Western blots show the accumulation of p53, p21, MDM2 and PUMA proteins. Graphs below represent the quantification of the corresponding transcript levels of the proteins.
(§1) For western blotting, cell extracts were prepared using NP-40 lysis buffer (50 mM Tris-HCl (pH 8.0), 150 mM NaCl, 1% NP-40, 5 mM EDTA supplemented with protease and phosphatase inhibitor cocktails (Sigma).
Total RNA was isolated using the RNeasy kit (Qiagen, Valencia, Calif., USA). The RNA was quantified using spectrophotometric analysis and used for quantitative real-time PCR. The primers used for each target analyzed are available on request. The RNA Master Power SYBR Green Mix (Roche) was used for quantification of mRNA levels.

A549 cells [2] = assay: Micronuclei formation and γH2AX staining (immunofluorescence microscopy) in A549 cells; assay type: cell-based
Protocol: Cells were fixed and stained for γH2AX (green) as described in Materials and Methods in the Examples. Nuclei were counterstained with DAPI blue. Visualization of nuclei and γH2AX positive foci was done by fluorescence microscopy.
Indirect immunofluorescence was carried out as described previously.^14 g-H2AX (Novus Biologicals, Littleton, Colo., USA, NB 100-383) and anti-rabbit Alexa 488-coupled secondary antibody (Molecular Probes, Carlsbad, Calif., USA) were used. Nuclei were counterstained with Hoechst 33342 (Molecular Probes). Immunofluorescence was visualized using Axiolmager Z1 (Zeiss, Gottingen, Germany).

[3] = system: cyclins A2 and B1 in A549 cells; assay: Western blot of cell cycle-related proteins after VX-680 treatment; assay type: cell-based; conditions: A549, VX-680 time course
Protocol: (c) is a series of western blots showing the comparison of expression levels of cell cycle-related proteins (Rb, cdc2, Cdk2, cyclin A2, cyclin E1 and cyclin B1) and p53-dependent gene products (MDM2 and p21) at the indicated time points after VX-680 treatment. Downregulation of mitotic cyclins A and B and upregulation of p53-dependent genes p21 and MDM2 correlate with the activation of p53.
as §1

A549 cells [4] = assay: Time course of cell cycle distribution of A549 cells incubated with VX-680; assay type: cell-based; conditions: A549, 200 nM VX-680, after 48 h
Protocol: After 48 h, more than 35% of cells were arrested in tetraploid G2/M (8N) (FIG. 2a). […] Together, the results confirmed that the 8N cells were arrested predominantly in G2 and VX-680 inhibited mitosis in part through a G2 checkpoint.

human keratinocytes = conditions: HEK cells treated with VX-680
Protocol: Primary human keratinocytes were purchased from Invitrogen and cultured in defined keratinocyte serum-free media (Invitrogen). All cell lines were cultured in a CO2 incubator (5% CO2 and 21% O2) at 37° C.
For analysis of cell cycle distribution, cells were harvested and fixed in 70% ethanol/PBS solution. Cells were stained in propidium-iodide containing solution (25 μg/ml propidium iodide supplemented with 1 mg/ml RNase A, in PBS (pH 7.8); Sigma Chemical, St Louis, Mo., USA) for 15 min at room temperature.

A549 cells [5] = assay: Colony survival assay, A549; assay type: cell-based; conditions: A549, VX-680 treatment alone, 48 h
Protocol: Colonies were counted 2 weeks after recovery in drug-free media. Cells were fixed with glutaraldehyde and stained with crystal violet. Plates are scanned and colonies were counted with an automated image analyzer. Three independent experiments were performed for each cell line.
Each data point represents the mean±S.D.
A total of 1000 cells were plated on each 10 cm plate and allowed to adhere overnight. […] After 48 h, cells were washed and recovered in fresh media for 12 days. Cells were then fixed in 6% glutaraldehyde (Sigma) and stained with crystal violet. Colonies were counted using GelCount™ (Oxford Optronix, Oxford, England). Each condition was carried out in triplicate.

[6] = system: Cdk/cyclin kinase activities (Cdk2, cdc2, cyclins A2 and B1) in A549 cells; assay: Cdk/cyclin kinase activities after incubation with VX-680 (immunoprecipitation, histone H1 kinase assay); assay type: cell-based; conditions: A549, VX-680 time course
Protocol: (b) is a series of western blots showing the kinetics of Kinetics of Cdk/cyclin kinase activities after incubation with VX-680. Cdk/cyclin kinase activities were assayed in vitro (refer to Materials and Methods in Examples). Cdk2, cyclins A and B1 were immunoprecipitated from cell lysates using specific antibodies followed by in vitro kinase assays using histone H1 as a substrate. Suc1 is used to capture Cdk1 and Cdk2 complexes by protein pull down as described in Materials and Methods. […]
The immunoprecipitated beads were resuspended in 5 μl of EB buffer, 10 mM DTT and 20 to […]. […] After electrophoresis on 12.5% polyacrylamide gels, phosphorylation was analyzed by autoradiography and quantified by phosphorimage analysis.

HCT116 p53−/− cells = assay: Cell cycle analysis of HCT116 p53−/− cells (nutlin-3, VX-680); assay type: cell-based; conditions: 200 nM VX-680, later time points (40 and 48 h), compared with p53+/+
Protocol: (a) is a comparison of the DNA profiles of P53+/+ and p53−/− cells after treatment with VX-680. HCT116 p53+/+ and p53−/− cells were incubated with 200 nM VX-680 and cells were harvested at the indicated time points for analysis of cell cycle distribution.
(b) is a comparison of the DNA profiles of p53+/+ and p53−/− cells with pre-treatment of Nutlin before incubation with VX-680.

ATM = ATM / DNA damage checkpoint dependence of VX-680-induced G2 arrest (western blot, DNA FACS profiles); assay type: cell-based
Protocol: as §1

For Cc1cc(Nc2cc(N3CCN(C)CC3)nc(Sc3ccc(NC(=O)C4CC4)cc3)n2)[nH]n1 [VX-680, cyclopropane carboxylic acid of {4-[4-(4-methyl-piperazin-1-yl)-6-(5-methyl-2H-pyrazol-3-ylamino)-pyrimidin-2-ylsulphanyl]-phenyl}-amide], the “apoptosis (annexin V)” value [1] was “underwent apoptosis”, the p53 activation (p53, p21, MDM2 and PUMA) was “p53 was activated” and the “p53 target genes p21, PUMA and MDM2” value (p53, p21, MDM2 and PUMA) was “all upregulated”. The “cells containing at least 1 micronucleus per nucleus” value (A549 cells [2]; A549, VX-680 48 h) was “More than 70%”, the “γH2AX staining in the micronuclei” value (A549 cells [2]; A549, VX-680-treated) was “increased” and the “protein levels of cyclins A2 and B1” value [3] was “timedependent decrease”. For the same molecule, the “cells arrested in tetraploid G2/M (8N)” value (A549 cells [4]) was “more than 35%”, the tetraploidy formation (human keratinocytes) was “significant tetraploid G2/M population” and the number of colonies (A549 cells [5]) was “drastically reduced”. For the same molecule, the “Cdk2 and cdc2 kinase activities” value [6] was “markedly reduced to undetectable levels”, the “cyclins A2- and B1-associated kinase activities” value [6] was “rapid reduction” and the endoreduplication (HCT116 p53−/− cells) was “Increased endoreduplication”. The “p53 phosphorylation on Ser15” value (ATM; VX-680-treated cells) was “without detectable phosphorylation on Ser15” and the “activation of ATM (Ser1981 phosphorylation)” value (ATM; low concentrations of VX-680) was “did not induce activation of ATM”.
